Results reported in patent publication US20250170111A1, “PYRIDINE BASED CHALCONE ANALOGS AS THERAPEUTIC AGENTS AND USE THEREOF” (QATAR UNIVERSITY, priority 2023, published 2025).
Read-outs that look alike come from different tables or passages of the source.

Key:
[1] = test system: MDA-MB-231 and MDA-MB-436; test: Soft agar colony formation assay, TNBC cell lines; format: cell-based, human; conditions: 28 days
MDA-231 and MDA-436 = test: Morphological examination, TNBC cell lines; format: cell-based, human; conditions: 24 and 48 hours post treatment
Experimental: Cells were seeded in 6 wells plate at a density of 150,000-200,000 cells/well and were incubated overnight. Then, cells were treated with the synthesized compounds at 5-10 μM concentration for 48 hours. Morphological changes were monitored using a DMi8 inverted microscope (Leica, Germany) and images were captured with a Leica MC170 HD camera.

MCF 10A [2] = test: Alamar Blue cell viability, normal breast epithelial cell line
MDA-MB-231 [3] = test: Alamar Blue cell viability assay, MDA-MB-231; format: cell-based; conditions: Homo sapiens, Mean ± SEM, read-out: IC50 against MDA-MB-231
Description: (§1) Besides, the effect of these analogs was compared to docetaxel, a first-line chemotherapy, as a positive control.

[4] = test system: MDA-MB-231 and MDA-MB-436; test: Alamar Blue cell viability, TNBC cell lines (stated for both); format: cell-based; conditions: Homo sapiens
Description: as §1

MDA-MB-436 = test: Alamar Blue cell viability assay, MDA-MB-436; format: cell-based; conditions: Homo sapiens, Mean ± SEM, read-out: IC50 against MDA-MB-436
Description: as §1

PC3 = test: Alamar Blue cell viability assay, PC3; conditions: for IC50: read-out: PC3 IC50, 48 hours, Mean ± SEM of three independent experiments
MDA-MB-231 [5] = test: Wound healing assay, MDA-MB-231; format: cell-based, human
Bax, Bcl-2 = test: Western blot of apoptosis-related proteins in PC3 and DU145; conditions: PC3 and DU145, 48 hours of treatment
[6] = test system: primary human dental bulb cells (ND); test: Alamar Blue cell viability, normal primary dental cells; conditions: 48 hours, Mean ± SEM
DU145 [7] = test: Alamar Blue cell viability assay, DU145; conditions: Homo sapiens, DU-145, 48 h, read-out: DU145 IC50
JNK1/2/3, ERK1/2, Akt = test: Western blot of JNK, ERK and AKT-related biomarkers in PC3; conditions: PC3 cell line
PC3 and DU145 [8] = test: Alamar Blue cell viability, AR-negative PCa cell lines (stated for both); conditions: Homo sapiens, DU-145, read-out: IC50 against PC3 and DU145 cell lines
DU145 [9] = test: Cell cycle analysis (PI flow cytometry), DU145; format: cell-based, human; conditions: DU145, 48 hours; not statistically significant (P>0.05)
Experimental: Cells were seeded in 100 mm Petri dishes at a density of 1.5 million cells/dish and incubated in RPMI supplemented with 10% FBS overnight at 37° C. Complete culture media was then removed, and cells were starved in serum serum-free for 16 hours to synchronize cells at the G0/G1 phase of the cell cycle. Subsequently, cells were treated with the compounds 13, 15, and 16 or docetaxel for 48 hours. After treatment, floating and adherent cells were collected, washed with ice-cold PBS and centrifuged at 500 g for 10 minutes at 4° C. Next, cells were fixed with ice-cold 70% ethanol added drop wisely while vertexing and stored at −20° C. for at least 24 hours. On the day of analysis, cells were pelleted (centrifuged at 800 g for 10 minutes at 4° C.), washed twice with ice-cold PBS and counted. Around one million cells of each sample were resuspended in 500 μl of FxCycle PI/RNase Staining Solution® (Thermo Fisher Scientific, USA) supplemented with 200 μg/ml RNase and incubated for 50 minutes at 37° C. in a shaking water bath, protected from light. Following incubation, cells were immediately analyzed by BD FACSAria™ II Flow Cytometer, at least 50,000 events were acquired for each sample. The proportion of cells in each cell cycle phase: […]

PC3 and DU145 [10] = test: Wound healing assay, PC3 and DU145; conditions: both cell lines; significant from 5 μM in PC3
C4-2 and LNCaP = test: Morphological examination, AR-positive PCa cell lines; format: cell-based
Experimental: Cells were seeded in 6 wells plate at a density of 150,000-200,000 cells/well and were incubated overnight. […] Morphological changes were monitored using a DMi8 inverted microscope (Leica, Germany) and images were captured with a Leica MC170 HD camera.

PC3 and DU145 [11] = test: Soft agar colony formation assay, PC3 and DU145 (stated for both); format: cell-based, human; conditions: 5 and 10 μM, 14 days, both cell lines
Experimental: Anchorage-independent growth, a characteristic of transformed cells that correlate with in vivo tumorigenic potential, was assessed by soft agar assay. First, a 2% noble agar (Sigma-Aldrich) stock solution was prepared in deionized and autoclaved water. […] After 14 days, the average number of colonies in each well was counted manually under the microscope and confirmed by ImageJ; only colonies with an area larger than […] were counted to avoid the inclusion of non-proliferating dead cells. Besides, the size of colonies in each treatment condition was measured by ImageJ from at least six random fields per well.

PC3 and DU145 [12] = test: Cell cycle analysis (PI flow cytometry), PC3 and DU145; format: cell-based, human; conditions: 48 hours
Experimental: The compounds' effect on cell cycle distribution of PC3 and DU145 was assessed by flow cytometry using propidium iodide (PI). Cells were seeded in 100 mm Petri dishes at a density of 1.5 million cells/dish and incubated in RPMI supplemented with 10% FBS overnight at 37° C. Complete culture media was then removed, and cells were starved in serum serum-free for 16 hours to synchronize cells at the G0/G1 phase of the cell cycle. Subsequently, cells were treated with the compounds 13, 15, and 16 or docetaxel for 48 hours. After treatment, floating and adherent cells were collected, washed with ice-cold PBS and centrifuged at 500 g for 10 minutes at 4° C. Next, cells were fixed with ice-cold 70% ethanol added drop wisely while vertexing and stored at −20° C. for at least 24 hours. On the day of analysis, cells were pelleted (centrifuged at 800 g for 10 minutes at 4° C.), washed twice with ice-cold PBS and counted. […] Following incubation, cells were immediately analyzed by BD FACSAria™ II Flow Cytometer, at least 50,000 events were acquired for each sample. The proportion of cells in each cell cycle phase: G1, S and G2-M was determined using FlowJo software based on cells' DNA content as represented by histograms of PI signal intensity.

MCF 10A [13] = conditions: selectivity index
[14] = range over both TNBC cell lines, read-out: IC50 against MDA-MB-231 and MDA-MB-436 cell lines

| SMILES | colony formation in soft agar (number and size) [1] | effect on cell morphology (MDA-231 and MDA-436) | IC50 (MDA-MB-231 [3]; 24 hrs. post treatment) [µM] | IC50 (MDA-MB-231 [3]; 48 hrs. post treatment) [µM] | IC50 [4, 14] [nM] | IC50 (MDA-MB-436; 24 hrs. post treatment) [nM] | IC50 (MDA-MB-436; 48 hrs. post treatment) [nM] | Bax/Bcl-2 expression (Bax, Bcl-2) | ND LD50 [6] [µM] | IC50 (DU145 [7]) [µM] | IC50 (PC3 and DU145 [8]) [µM] | effect on cell cycle distribution (DU145 [9]) | IC50 (PC3) [µM] | wound closure (PC3 and DU145 [10]) | further results |
| --- | --- | --- | --- | --- | --- | --- | --- | --- | --- | --- | --- | --- | --- | --- | --- |
| CS(=O)(=O)c1ccc(C(=O)/C=C/c2cccc(-c3ccsc3)n2)cc1 [Compound 23, (E)-1-(4-(methylsulfonyl)phenyl)-3-(6-(thiophen-3-yl)pyridin-2-yl) prop-2-en-1-one] | significant reduction in both the total number of colonies and average colony size |  |  |  |  |  |  |  |  |  |  |  |  |  |  |
| COc1ccccc1C(=O)/C=C/c1cccc(-c2ccsc2)n1 [Compound 17, (E)-1-(2-methoxyphenyl)-3-(6-(thiophen-3-yl)pyridin-2-yl) prop-2-en-1-one] | significant reduction in both the total number of colonies and average colony size | lose their shape, shrink in size, form apoptotic bodies, and increased cell death | 3.6 ± 0.5 | 3.2 | 870 to 3200 | 3200 ± 200 | 1600 |  |  |  |  |  |  |  | selectivity versus normal cells (MCF10a) (MCF 10A [2]): greater selectivity towards cancerous cell lines; reduction in cell viability of PC3 (PC3; 2.5 μM): 84.7%; cell migration of MDA-MB-231 (wound healing) (MDA-MB-231 [5]): significantly reduced cell migration |
| COc1ccc2c(c1)C(=O)/C(=C/c1cccc(-c3ccsc3)n1)CC2 [Compound 15, (E)-7-methoxy-2-((6-(thiophen-3-yl)pyridin-2-yl)methylene)-3,4-dihydronaphthalen-1 (2H)-one] |  |  |  |  |  |  |  | significant increase in Bax/Bcl-2 ratio | >50.0 | 6.47 ± 0.57 | 4.32 to 6.47 | slight accumulation in G2/M and sub G1 phases | 6.6 ± 0.49 | dose-dependent reduction in wound closure | expression of JNK1/2/3, ERK1/2, Akt and phosphorylated forms (JNK1/2/3, ERK1/2, Akt): reduced the expression of JNK1/2/3, p-ERK1/2, Akt and p-Akt |
| COc1cc2c(cc1OC)C(=O)/C(=C/c1ccc(-c3ccsc3)nc1)CC2 [Compound 13, (E)-6,7-dimethoxy-2-((6-(thiophen-3-yl)pyridin-3-yl)methylene)-3,4-dihydronaphthalen-1 (2H)-one] |  |  |  |  |  |  |  | significant increase in Bax/Bcl-2 ratio | >50.0 | 5.63 ± 1.07 | 4.32 to 6.47 | slight accumulation in G2/M and sub G1 phases | 5.6 ± 0.38 | dose-dependent reduction in wound closure | effect on cell morphology (C4-2 and LNCaP): lose their shape, shrink in size, and increased cell death; colony formation in soft agar (number and size) (PC3 and DU145 [11]): significant reduction in both the total number of colonies and average colony size |
| CC(=O)O[C@@]12CO[C@@H]1C[C@H](O)[C@@]1(C)C(=O)[C@H](O)C3=C(C)[C@@H](OC(=O)[C@H](O)[C@@H](NC(=O)OC(C)(C)C)c4ccccc4)C[C@@](O)([C@@H](OC(=O)c4ccccc4)[C@H]21)C3(C)C [docetaxel, reference compound] |  |  | 11 ± 1.7 | 6.43 ± 0.6 |  | 11900 ± 2700 | 9800 ± 2000 |  |  |  |  |  |  |  | increase of G2/M phase as compared to control (PC3 and DU145 [12]): 1.9-2.6 folds |
| O=C(/C=C/c1cccc(-c2ccsc2)n1)c1ccccc1C(F)(F)F [Compound 25, (E)-3-(6-(thiophen-3-yl)pyridin-2-yl)-1-(2-(trifluoromethyl)phenyl) prop-2-en-1-one] |  | lose their shape, shrink in size, form apoptotic bodies, and increased cell death | 3.5 ± 1.47 | 2.1 | 870 to 3200 | 2400 ± 200 | 870 |  |  |  |  |  |  |  | selectivity versus normal cells (MCF10a) (MCF 10A [2]; MDA-231 and MDA-436 vs MCF10a): greater selectivity towards cancerous cell lines; Effect on non-tumorigenic epithelial cell line MCF 10A (MCF 10A [2]; after 48 hrs.): 3.44 ± 0.4 µM; IC50 ([4]; range, unit inferred, read-out: IC50 (TNBC cell lines)): 870 to 2100 nM; SI of MCF 10A/MDA-MB231 (MCF 10A [13]): 1.8; SI of MCF 10A/MDA-MB436 (MCF 10A [13]): 3.9; cell migration of MDA-MB-231 (wound healing) (MDA-MB-231 [5]; dose-dependent): significantly reduced cell migration |
